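Each compound was tested at five concentrations against cells in 96-well plates for 48 hours. GI50 is the concentration that inhibits growth by half.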 Calls of active or inactive are those of the source. Rule as the data show it: active = GI50 up to about 1.1 µM and inactive = higher.
How the values were obtained:
Assay in all cases: NCI tumour cell line growth inhibition, 48 h
[1] = system: NCI-H23
[2] = system: IGROV-1
[3] = system: CAKI-1
[4] = system: U-251
[5] = system: COLO 205
[6] = system: NCI-H460
[7] = system: HCT-15
[8] = system: MOLT-4
[9] = system: CCRF-CEM
[10] = system: SK-MEL-28
[11] = system: OVCAR-3
[12] = system: RXF 393
[13] = system: SK-OV-3
[14] = system: HL-60
[15] = system: OVCAR-8
[16] = system: HT-29
[17] = system: SF-268
[18] = system: OVCAR-4
[19] = system: EKVX
[20] = system: SW-620

Measured: GI50

CCOC(=O)CCC(NC(=O)OCc1ccccc1)C(=O)NC(CCC(=O)OCC)C(=O)NNC(=O)OC(C)(C)C (stereo not given)
inactive: [1] > 100 µM | [2] > 100 µM | [3] > 100 µM | [4] > 100 µM | [5] > 100 µM | [6] > 100 µM | [8] 28.2 µM | [9] 38.5 µM | [10] > 100 µM | [11] > 100 µM | [12] 18.7 µM | [13] > 100 µM | [14] > 100 µM | [15] > 100 µM
> 100 µM: [7]

Cc1ccc(C)c(C(=O)CC2OC(O)C(Cl)C2Cl)c1 (stereo not given)
34.8 µM: [7]
inactive: [1] > 100 µM | [2] > 100 µM | [3] 30.4 µM | [4] > 100 µM | [16] > 100 µM | [5] > 100 µM | [6] > 100 µM | [8] 8.65 µM | [17] > 100 µM | [18] > 100 µM | [9] 41.1 µM | [10] 39.5 µM | [11] 36.6 µM | [12] 26.2 µM | [19] > 100 µM | [20] 18.7 µM | [13] > 100 µM | [14] 20.6 µM | [15] 18.3 µM

COc1cccc(-c2nnc3c(-c4ccccc4)nc4ccccc4n23)c1
7.23 µM: [7]
inactive: [1] 30.1 µM | [2] 21.6 µM | [3] 33.6 µM | [4] 21.8 µM | [16] 19.2 µM | [5] 8.57 µM | [6] 10.3 µM | [8] 9.53 µM | [17] > 100 µM | [18] 9.86 µM | [9] 11.2 µM | [10] > 77.4 µM | [11] 12.7 µM | [12] 8.38 µM | [19] 55.2 µM | [20] 16.4 µM | [13] 73.8 µM | [14] 7.18 µM | [15] 45.2 µM

COc1ccc2c(c1O)-c1cc(O)cc3c1[C@@H](C2)N(C)CC3
71.1 µM: [7]
inactive: [1] 96.8 µM | [2] 72.8 µM | [3] 12.3 µM | [4] 10.7 µM | [16] > 92.3 µM | [5] 50.7 µM | [6] 74 µM | [8] 66.1 µM | [17] 75.3 µM | [18] 60.5 µM | [9] 81.1 µM | [10] 80 µM | [11] 55.8 µM | [12] 55.7 µM | [19] 98.4 µM | [20] 61.8 µM | [13] 203 µM | [14] 11 µM | [15] 8.79 µM

c1ccc2c(c1)OCCc1cn[nH]c1-2
active: [3] 0.452 µM
> 100 µM: [7]
inactive: [1] > 100 µM | [2] > 100 µM | [4] > 100 µM | [16] > 100 µM | [5] > 100 µM | [6] > 100 µM | [8] > 100 µM | [17] > 100 µM | [18] > 100 µM | [9] > 100 µM | [10] > 100 µM | [11] > 100 µM | [12] > 69.2 µM | [19] 80.5 µM | [20] > 100 µM | [13] > 100 µM | [14] 60.3 µM | [15] > 100 µM

Cn1c(=O)[nH]c2nncnc2c1=O
299 µM: [7]
inactive: [1] 179 µM | [2] 29.2 µM | [3] 11 µM | [4] 28.7 µM | [16] 114 µM | [5] 69.2 µM | [6] 29.3 µM | [8] 181 µM | [17] 133 µM | [18] 85.5 µM | [9] 173 µM | [10] 474 µM | [11] 78.9 µM | [12] 19.3 µM | [19] 40.5 µM | [20] 75 µM | [13] 146 µM | [14] 27.9 µM | [15] 19.8 µM

Cc1cccc2c(N)c3cccc(C(=O)NCCN(C)C)c3nc12
< 0.0154 µM: [7]
active: [1] < 0.0259 µM | [2] < 0.0291 µM | [3] < 0.015 µM | [4] < 0.0302 µM | [16] < 0.0236 µM | [5] 0.0315 µM | [6] < 0.01 µM | [8] < 0.01 µM | [17] < 0.0265 µM | [18] 0.09 µM | [9] < 0.01 µM | [10] 0.193 µM | [11] 0.125 µM | [12] 0.184 µM | [19] 0.0583 µM | [20] < 0.0225 µM | [13] 0.113 µM | [14] < 0.01 µM | [15] 0.0695 µM

CNC(=O)SCC(N)C(=O)O (stereo not given)
inactive: [1] > 84.1 µM | [2] > 100 µM | [3] 65.8 µM | [4] > 89.9 µM | [16] > 71.3 µM | [5] 61.1 µM | [6] > 68.7 µM | [8] 38.2 µM | [17] > 100 µM | [18] > 100 µM | [9] 25.8 µM | [10] > 100 µM | [11] > 100 µM | [12] > 100 µM | [19] > 100 µM | [20] > 85.9 µM | [13] > 100 µM | [14] 25.2 µM | [15] > 100 µM
46 µM: [7]

CCOC(=O)CSc1nc(N)c2c(-c3ccc(OC)c(OC)c3)c3c(nc2n1)CCCC3
> 100 µM: [7]
inactive: [1] > 100 µM | [2] > 100 µM | [3] > 100 µM | [4] > 100 µM | [16] > 100 µM | [5] > 100 µM | [6] > 100 µM | [8] > 100 µM | [17] 43.4 µM | [18] 34.4 µM | [9] > 100 µM | [10] > 100 µM | [11] > 100 µM | [12] 49.2 µM | [19] 95.3 µM | [20] > 100 µM | [13] 26.9 µM | [14] > 100 µM | [15] 24.3 µM

Cc1cccc2nc3cccc(C(=O)NCCN(C)C)c3nc12
0.442 µM: [7]
inactive: [11] 1.36 µM
active: [1] 0.541 µM | [2] 0.525 µM | [3] 0.482 µM | [4] 0.492 µM | [16] 0.507 µM | [5] 0.443 µM | [6] 0.301 µM | [8] 0.26 µM | [17] 0.885 µM | [18] 0.83 µM | [9] 0.627 µM | [10] 1.01 µM | [12] 1.03 µM | [19] 0.443 µM | [20] 0.272 µM | [13] 0.574 µM | [14] 0.461 µM | [15] 0.673 µM

NC(CCP(=O)(O)CCC1C=CC=CC1)C(=O)O (stereo not given)
> 100 µM: [7]
inactive: [1] > 100 µM | [2] > 100 µM | [3] > 100 µM | [4] > 100 µM | [16] > 100 µM | [5] > 100 µM | [6] > 100 µM | [8] > 100 µM | [17] > 100 µM | [18] > 100 µM | [9] > 100 µM | [10] > 100 µM | [11] > 100 µM | [12] > 100 µM | [19] > 100 µM | [20] > 100 µM | [13] > 100 µM | [14] > 100 µM | [15] > 100 µM

N=C(CSS(=O)(=O)O)NC1CC2CCC1C2 (stereo not given)
inactive: [1] > 100 µM | [2] > 100 µM | [3] > 100 µM | [4] 57.8 µM | [5] > 100 µM | [6] 43.1 µM | [8] 78.2 µM | [17] > 100 µM | [18] > 100 µM | [9] > 100 µM | [10] > 100 µM | [11] > 100 µM | [12] > 100 µM | [20] > 100 µM | [13] > 100 µM | [14] > 100 µM | [15] > 100 µM
> 100 µM: [7]

COc1cc(-c2cc(=O)c3c(O)c(CC=C(C)C)c(O)cc3o2)ccc1O
15 µM: [7]
inactive: [1] > 50 µM | [2] 24 µM | [3] 10 µM | [4] 24.1 µM | [16] > 50 µM | [5] > 50 µM | [6] 19.5 µM | [8] 16.3 µM | [17] 24.6 µM | [18] 15.8 µM | [9] 16.8 µM | [10] 1.17 µM | [11] 14.9 µM | [12] 24.4 µM | [19] 7.29 µM | [20] 16.7 µM | [13] 32.3 µM | [14] > 50 µM | [15] 26.7 µM

O=C(c1ccccc1)c1ccc2n[se]nc2c1
14 µM: [7]
inactive: [1] 62.5 µM | [2] 50.6 µM | [3] 27.7 µM | [4] > 100 µM | [16] 6.34 µM | [5] 21.1 µM | [8] 23.9 µM | [17] > 100 µM | [18] 39.4 µM | [9] 17.8 µM | [10] > 100 µM | [12] 40.9 µM | [19] 56.5 µM | [20] 10.3 µM | [13] 35.1 µM | [14] 3.56 µM | [15] 73.5 µM

C[C@]12CC[C@@H]3c4ccc(OCCN5CCCC5)cc4CC[C@H]3[C@@H]1CCC2=O
6.35 µM: [7]
inactive: [1] 36.4 µM | [2] 12.4 µM | [3] 31.1 µM | [4] 75.2 µM | [16] 25.9 µM | [5] 8.41 µM | [6] 19.9 µM | [8] 22.4 µM | [18] 21.5 µM | [9] 37.9 µM | [10] 49.5 µM | [11] 23.9 µM | [12] 25.5 µM | [19] 18.2 µM | [20] 41 µM | [13] 48.6 µM | [14] 45.2 µM | [15] 25.6 µM
